US20240270821A1, “GIP/GLP1/GCG TRI-RECEPTOR AGONISTS AND USES THEREOF” (priority 2023, published 2024)
Where two headings read alike, the source gives them in different places. Marks after values point to notes of the source that are not given here. Starred links: 1 amine or outer side, 2 acyl side, 3 side chain; linkers in the order of their positions; H or OH if unused. Non-standard residues stand in square brackets, D forms with d. Groups on a side chain read outwards from the residue. No end group written: not given here. *: point of attachment. C20 diacid = O=C(O)CCCCCCCCCCCCCCCCCCC(=O)*; C18 diacid = O=C(O)CCCCCCCCCCCCCCCCC(=O)*; γGlu = O=C(O)[C@H](CCC(=O)[*:2])N[*:1]; αMe4Pal = C[C@](N)(Cc1ccncc1)C(=O)O; αMeL = CC(C)C[C@](C)(N)C(=O)O; AEEA = NCCOCCOCC(=O)O; Aib = CC(C)(N)C(=O)O

What was measured:
hGIPR [1] = target: T1, hGIPR (Homo sapiens, UniProt P48546); assay: Functional cAMP activation in the presence of 0.1% casein (no HSA); assay type: cell-based;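 further: intracellular cAMP rise after 30 min at 37 °C read by HTRF against a standard curve, scaled between buffer alone (0%) and top control ligand concentration (100%), four-parameter fit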
T1 sequence (P48546 22-466): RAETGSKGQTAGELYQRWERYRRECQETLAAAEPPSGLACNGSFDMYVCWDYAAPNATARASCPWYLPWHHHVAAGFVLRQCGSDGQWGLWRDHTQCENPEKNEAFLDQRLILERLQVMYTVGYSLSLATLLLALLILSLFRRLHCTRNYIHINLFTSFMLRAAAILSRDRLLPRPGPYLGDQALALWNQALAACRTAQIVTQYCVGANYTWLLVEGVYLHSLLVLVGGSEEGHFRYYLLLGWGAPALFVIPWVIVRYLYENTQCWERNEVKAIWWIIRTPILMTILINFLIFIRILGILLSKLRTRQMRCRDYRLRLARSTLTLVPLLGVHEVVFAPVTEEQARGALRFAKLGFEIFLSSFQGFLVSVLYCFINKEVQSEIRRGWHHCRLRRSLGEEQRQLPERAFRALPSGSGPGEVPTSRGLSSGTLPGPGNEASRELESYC

hGLP-1R [2] = target: T2, hGLP-1R (Homo sapiens, UniProt P43220); assay: GLP-1R CHO cell β-arrestin recruitment assay; assay type: cell-based; set-up: host or cells: CHO-K1 (PathHunter, assay-ready frozen cells);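 further: luminescence read after 90 min peptide exposure at 37 °C and a further 60 min with detection reagent at room temperature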
Target sequence in this assay (P43220 24-463): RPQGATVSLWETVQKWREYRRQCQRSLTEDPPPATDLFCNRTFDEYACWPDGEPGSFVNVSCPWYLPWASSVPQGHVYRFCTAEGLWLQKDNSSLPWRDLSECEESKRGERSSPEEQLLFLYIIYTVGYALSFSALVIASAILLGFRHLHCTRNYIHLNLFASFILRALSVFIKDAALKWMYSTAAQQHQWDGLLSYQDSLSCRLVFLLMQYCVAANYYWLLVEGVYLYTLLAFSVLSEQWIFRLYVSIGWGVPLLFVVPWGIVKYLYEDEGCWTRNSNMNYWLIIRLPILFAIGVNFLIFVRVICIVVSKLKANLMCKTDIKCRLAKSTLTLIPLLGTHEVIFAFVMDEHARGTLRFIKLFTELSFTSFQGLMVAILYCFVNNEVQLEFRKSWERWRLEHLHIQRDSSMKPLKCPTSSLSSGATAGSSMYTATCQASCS
Target sequence in this assay (P32121 whole entry partner): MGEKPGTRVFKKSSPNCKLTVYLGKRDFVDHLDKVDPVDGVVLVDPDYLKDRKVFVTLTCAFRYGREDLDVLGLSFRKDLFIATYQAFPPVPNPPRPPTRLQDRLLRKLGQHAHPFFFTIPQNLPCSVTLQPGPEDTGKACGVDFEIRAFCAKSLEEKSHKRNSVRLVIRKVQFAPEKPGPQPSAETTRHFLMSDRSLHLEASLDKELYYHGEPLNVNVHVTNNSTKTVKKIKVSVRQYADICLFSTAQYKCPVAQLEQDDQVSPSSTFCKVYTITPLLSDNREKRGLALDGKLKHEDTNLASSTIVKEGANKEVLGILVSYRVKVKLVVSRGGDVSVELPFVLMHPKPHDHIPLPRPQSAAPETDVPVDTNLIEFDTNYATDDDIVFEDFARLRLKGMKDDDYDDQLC
Description: CHO-KI cells expressing Pro-Link-tagged Human GLP-1R and enzyme-acceptor-tagged β-arrestin-2 may be obtained from DiscoveRx and prepared as assay-ready frozen cells. Test peptides are solubilized in DMSO and serial dilutions are performed using the Echo acoustic dispenser (LabCyte). Assay media is the PathHunter Cell Assay Buffer (DiscoveRx) containing 0.1% w/v hydrolyzed Casein (Sigma). […] Plates are incubated for 90 minutes in a 37′C/5% C02 incubator and 10 μl of PathHunter detection reagent is added (DiscoveRx) and plates are incubated at room temperature for 60 minutes. Luminescence signal is measured. Peptide concentration-response curves fit to a four-parameter logistic model to calculate potency as an EC50.

[3] = Body weight in diet-induced obese C57BL/6 mice; assay type: in vivo; details: 10 nmol/kg SC Q3D, 14 days, percent of starting weight, DIO mice, mean ± SEM n=5
Outline: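 Male C57BL/6 DIO mice (41-50 g, 5 per group, randomized by weight) on calorie-rich diet received subcutaneous doses 30-90 min before dark onset, QD or Q3D for 9-16 days. Body weight measured daily, expressed as percent of starting weight, mean±SEM.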

hGLP-1R [4] = target: T2, hGLP-1R; assay: Functional cAMP activation in the presence of 0.1% casein (no HSA); assay type: cell-based;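 further: intracellular cAMP rise after 30 min at 37 °C read by HTRF, normalized between buffer only (0%) and maximal control ligand (100%), four-parameter variable-slope fit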
Target sequence in this assay (P43220 24-463): as the sequence (P43220 24-463) above

human GcgR = human GcgR (Homo sapiens, UniProt P47871); assay: Functional cAMP activity in the presence of 1% HSA; assay type: cell-based
human GLP1-R = human GLP1-R (Homo sapiens, UniProt P43220); assay: GLP1-R internalization assay in HEK293 cells; assay type: cell-based; details: for Internalization % TOP: normalized to maximum concentration of GLP-1 (100%)
[5] = Pharmacokinetics in male Sprague Dawley rats, single subcutaneous administration; details: rat, in vivo, sc, 10 nmol/kg
Description: The pharmacokinetics of the exemplary analogs are evaluated following a single subcutaneous (SC) administration of 10 nmol/kg (dissolved in 40 mM Tris pH8) or single 4 mg/kg (mixed with 250 mM sodium decanoate/C10 in 40 mM Tris pH8) intrajejunal (IJ) administration to male Sprague Dawley rats. Blood samples are collected over 96 hours following SC administration and 72 hours following IJ dosing, and resulting individual plasma concentrations are used to calculate pharmacokinetic parameters. Peptide plasma (K3 EDTA) concentrations are determined using a qualified LC/MS method that measured the intact mass of the analog. Each peptide and an analog as an internal standard are extracted from rat plasma using methanol. A High Resolution Instrument was used for LC/MS detection.

hGLP-1R [6] = target: T2, hGLP-1R; assay: Functional cAMP activity in the presence of 1% HSA; assay type: cell-based
Target sequence in this assay (P43220 24-463): as above

hGcgR = hGcgR (Homo sapiens, UniProt P47871); assay: Functional cAMP activation in the presence of 0.1% casein (no HSA); assay type: cell-based;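 further: intracellular cAMP rise after 30 min at 37 °C, read by HTRF against a cAMP standard curve, scaled from buffer only (0%) to maximal control ligand response (100%)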
hGIPR [7] = target: T1, hGIPR; assay: Functional cAMP activity in the presence of 1% HSA; assay type: cell-based
[8] = In vivo ileum (distal loop) absorption assay; details: Sprague Dawley, rat, 300 μM peptide with 100 mM C10, rats
Description: Ileum absorption of the exemplary polypeptides in the presence of C10 in rats is evaluated using a previously reported intestinal closed loop model (Lawrence, S. A.; Blankenship, R.; Brown, […].; Ellis, B.; Thangaraju, A.; Datta-Mannan, A., Influence of FcRn binding properties on the gastrointestinal absorption and exposure profile of Fc molecules. […] Overnight fasted Sprague Dawley rats with body weights between 250-280 grams are anesthetized by inhaling isoflurane and placed on a warm surgical table maintained by circulating water at 37 °C. The surgical area is shaved, and the skin is disinfected with betadine scrub followed by 70% isopropyl alcohol. An approximately 2 cm ventral midline incision is made to expose intestine, and 10 cm of an ileum segment is tied off. The peptides are formulated with 100 mM C10 in Tris buffer (pH 8.0, 50 mM) at a final concentration of 300 μM. The formulations are administered directly into the ileum loop. […] Blood samples are collected into tubes containing […] (5%) and processed to plasma for subsequent analyses. Peptide concentrations in the plasma are determined by LC/MS.

[9] = target: human glucagon receptor (hGcgR) (human) (UniProt P47871); assay: cell-based or functional assay
[10] = target: T3, human GIP receptor (hGIPR) (human) (UniProt P48546); assay: cell-based or functional assay
T3 sequence (looked up): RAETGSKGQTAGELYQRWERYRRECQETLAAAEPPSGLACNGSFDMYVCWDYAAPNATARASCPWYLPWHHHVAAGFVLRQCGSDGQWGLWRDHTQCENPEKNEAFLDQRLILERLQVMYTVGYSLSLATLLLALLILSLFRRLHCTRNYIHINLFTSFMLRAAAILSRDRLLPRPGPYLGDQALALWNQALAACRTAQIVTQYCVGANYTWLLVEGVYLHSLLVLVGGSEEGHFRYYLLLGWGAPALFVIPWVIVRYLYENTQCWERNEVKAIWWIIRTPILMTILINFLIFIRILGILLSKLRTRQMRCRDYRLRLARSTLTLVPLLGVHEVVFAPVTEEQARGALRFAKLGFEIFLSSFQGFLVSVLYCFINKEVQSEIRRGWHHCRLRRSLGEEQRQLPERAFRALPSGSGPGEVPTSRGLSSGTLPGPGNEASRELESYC

[11] = target: T4, human GIP receptor (human) (UniProt P48546); assay: cell-based or functional assay
T4 sequence (looked up): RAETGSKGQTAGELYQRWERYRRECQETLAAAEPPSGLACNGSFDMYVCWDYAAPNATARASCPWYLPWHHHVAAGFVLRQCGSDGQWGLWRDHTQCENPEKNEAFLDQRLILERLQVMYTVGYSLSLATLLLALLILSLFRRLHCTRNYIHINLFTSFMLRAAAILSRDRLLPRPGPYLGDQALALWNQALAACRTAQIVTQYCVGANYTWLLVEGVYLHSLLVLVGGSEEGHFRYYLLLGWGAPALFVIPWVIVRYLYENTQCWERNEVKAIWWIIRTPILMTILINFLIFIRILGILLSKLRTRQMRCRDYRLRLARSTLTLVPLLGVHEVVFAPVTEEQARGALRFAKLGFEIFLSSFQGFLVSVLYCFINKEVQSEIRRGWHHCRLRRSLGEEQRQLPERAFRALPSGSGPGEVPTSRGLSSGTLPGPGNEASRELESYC

[12] = target: human glucagon receptor (human) (UniProt P47871); assay: cell-based or functional assay
[13] = target: human GLP-1 receptor (hGLP-1R) (human) (UniProt P43220); assay: cell-based or functional assay
hGLP-1R [14] = target: T2, hGLP-1R; assay: cell-based or functional assay
Target sequence in this assay (P43220 24-463): as the sequence (P43220 24-463) above

[15] = target: human GLP-1R (SNAP-GLP-1R expressed in HEK293 cells) (human) (UniProt P43220); assay: cell-based or functional assay
Sequence of human GLP-1R (SNAP-GLP-1R expressed in HEK293 cells) (human) (P43220 24-463): as the sequence (P43220 24-463) above

Sequence of human glucagon receptor (hGcgR) (human) (P47871 26-477): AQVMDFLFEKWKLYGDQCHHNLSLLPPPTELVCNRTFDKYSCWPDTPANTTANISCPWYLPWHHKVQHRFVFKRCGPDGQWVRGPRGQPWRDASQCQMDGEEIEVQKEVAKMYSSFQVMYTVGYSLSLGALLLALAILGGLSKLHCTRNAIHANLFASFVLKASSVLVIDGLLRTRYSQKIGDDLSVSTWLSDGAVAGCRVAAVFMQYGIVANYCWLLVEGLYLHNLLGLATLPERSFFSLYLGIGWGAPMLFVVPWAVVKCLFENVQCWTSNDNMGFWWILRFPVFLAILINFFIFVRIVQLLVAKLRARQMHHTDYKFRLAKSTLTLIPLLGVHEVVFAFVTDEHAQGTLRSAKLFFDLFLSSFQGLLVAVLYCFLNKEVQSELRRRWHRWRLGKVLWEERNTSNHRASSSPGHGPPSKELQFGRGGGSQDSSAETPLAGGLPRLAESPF
Sequence of human glucagon receptor (human) (P47871 26-477): as above
Sequence of human GLP-1 receptor (hGLP-1R) (human) (P43220 24-463): as the sequence (P43220 24-463) above
Sequence of human GLP1-R (P43220 24-463): as above
Sequence of hGcgR (P47871 26-477): as the sequence (P47871 26-477) above
Sequence of human GcgR (P47871 26-477): as above

Y[Aib]QGTFTSDFSK[αMeL]LDKK([AEEA-γGlu-C20 diacid])AQ[Aib]AFIEYLLAGGPSSGEPPPSGE-NH2 [Example 2]
EC50 (hGIPR [1]; in the presence of 0.1% casein (no HSA), geometric mean, read-out: Relative cAMP EC50, hGIPR): 0.207 nM
EC50 (hGLP-1R [2]; CHO-K1 PathHunter, β-arrestin-2, 0.1% casein, read-out: hGLP1R β-arrestin Rel EC50): > 10000 nM
% Stimulation Max (hGLP-1R [2]; normalized to GLP-1(7-36) as maximum control): 12.3%
Body weight (%) [3]: 77.90 +/− 1.90**** %
EC50 (hGLP-1R [4]; in the presence of 0.1% casein (no HSA), geometric mean, read-out: Relative cAMP EC50, hGLP-1R): 1.65 nM
EC50 (human GcgR; read-out: cAMP Rel EC50, hGcgR): 1630 nM
EC50 (human GLP1-R; HEK293 cells expressing SNAP-GLP-1R, read-out: GLP1R Internalization EC50): 49.5 nM
Internalization % TOP (human GLP1-R): 66.8%
CL/F [5]: 0.143 mL/min/kg
half-life [5]: 12.1 h
EC50 (hGLP-1R [6]; read-out: cAMP Rel EC50, hGLP-1R): 631 nM
EC50 (hGcgR; in the presence of 0.1% casein (no HSA), geometric mean, read-out: Relative cAMP EC50, hGcgR): 4.29 nM
EC50 (hGIPR [7]; read-out: cAMP Rel EC50, hGIPR): 75.5 nM

Y[Aib]QGTFTSDFSQ[αMeL]LDKK([AEEA-γGlu-C18 diacid])AQ[αMe4Pal]AFIEYLIE[Aib]GESSGAPPPSGS-NH2 [Example 232]
AUC [8]: 0.202 µM·h
level at time molar at 10 min ([8]; 10 min, read-out: 10 min IL plasma concentration): 186 nM
level at time molar at 20 min ([8]; 20 min, read-out: 20 min IL plasma concentration): 235 nM
level at time molar at 40 min ([8]; 40 min, read-out: 40 min IL plasma concentration): 255 nM
level at time molar at 1 h ([8]; 60 min, read-out: 60 min IL plasma concentration): 256 nM
EC50 (hGIPR [1]): 0.102 nM
EC50 (hGLP-1R [4]): 0.819 nM
EC50 (human GcgR): 482 nM
EC50 (human GLP1-R): 44.7 nM
Internalization % TOP (human GLP1-R): 45.5%
EC50 (hGLP-1R [6]): 226 nM
EC50 (hGcgR): 2.42 nM
EC50 (hGIPR [7]): 24.6 nM

B1: Example 579 (peptide)
chain: YXQGTXTSDXSILLDKKAQXAFIEWLQEGGPSSGEPPPSGTEE
modifications: non-natural residues; lysine acylated with C18 diacid; C-terminal amide; synthetic construct; SITE 2: note = 2-Aminoisobutyric Acid; SITE 6: note = alpha-methyl-2-fluoro-L-phenylalanine; SITE 10: note = 3-(4-Pyridyl)-L-alanine; SITE 17: note = Lysine is chemically modified through conjugation of the epsilon-amino group of the Lysine side chain with (gamma-Glu)2-CO-(CH2)1
Relative cAMP EC50 [9]: 2.36 nM
Relative cAMP EC50 [10]: 0.0171 nM
cAMP Rel EC50, nM (presence of 1% HSA) [11]: 3.79 nM
cAMP Rel EC50, nM (presence of 1% HSA) [12]: 679 nM
Relative cAMP EC50 [13]: 0.252 nM
cAMP Rel EC50, nM (presence of 1% HSA) (hGLP-1R [14]): 67.3 nM

B2: Example 548 (peptide)
chain: YXQGTXTSDXXILLDXKAQXXFIEYLIEGGPSSGEPPPSGTGE
modifications: synthetic construct; SITE 2: note = 2-Aminoisobutyric Acid; SITE 6: note = alpha-methyl-2-fluoro-L-phenylalanine; SITE 10: note = 3-(4-Pyridyl)-L-alanine; SITE 11: note = alpha-methyl-L-serine; SITE 16: note = L-ornithine; SITE 17: note = Lysine is chemically modified through conjugation of the epsi
GLP1R Internalization EC50 [15]: 17.8 nM
Internalization % TOP [15]: 109%
Relative cAMP EC50 [9]: 3.94 nM
Relative cAMP EC50 [10]: 0.0547 nM
cAMP Rel EC50, nM (presence of 1% HSA) [11]: 3.48 nM
cAMP Rel EC50, nM (presence of 1% HSA) [12]: 295 nM
Relative cAMP EC50 [13]: 0.478 nM
cAMP Rel EC50, nM (presence of 1% HSA) (hGLP-1R [14]): 38 nM

B3: Example 583 (peptide)
chain: YXQGTXTSDXSILLDXKAQXAFIEYLQEGGPSSGEPPPSGTEE
modifications: acylated lysine (γ-Glu)2 C18 diacid; non-natural residues; C-terminal amide; synthetic construct; SITE 2: note = 2-Aminoisobutyric Acid; SITE 6: note = alpha-methyl-2-fluoro-L-phenylalanine; SITE 10: note = 3-(4-Pyridyl)-L-alanine; SITE 16: note = L-ornithine; SITE 17: note = Lysine is chemically modified through conjugation of the epsilon-amino group of the Lysine side chai
Relative cAMP EC50 [9]: 6.32 nM
Relative cAMP EC50 [10]: 0.0692 nM
cAMP Rel EC50, nM (presence of 1% HSA) [11]: 12.3 nM
cAMP Rel EC50, nM (presence of 1% HSA) [12]: 1250 nM
Relative cAMP EC50 [13]: 0.542 nM
cAMP Rel EC50, nM (presence of 1% HSA) (hGLP-1R [14]): 71 nM
